The structures appear in SMILES notation.

The assay concerns the target HIV-1 PR (Human immunodeficiency virus type 1 group M subtype B, UniProt P04585). The experiment in a line: HIV-protease inhibitory activity assay (FRET peptide substrate). The following applies: Test Example 1. In kind it is biochemical. As for the experimental part:
Test Example 1: HIV-Protease Inhibitory Activity Assay
The HIV-1 PR assay was performed by using a FRET (Fluorescence Resonance Energy Transfer) peptide substrate (AnaSpec, Inc., Fremont, Calif.). Initially in the intact FRET peptide, the fluorescence of HiLyte Fluor 488 is quenched by QXL 520. Upon substrate cleavage by PR, the fluorescence is recovered and can be monitored. Test compounds diluted in DMSO was plated to the wells of 384-well plate. Then, mixed with assay buffer (0.1 mol/L NaAc containing 0.5 mol/L NaCl, 1 mmol/L EDTA, 1 mmol/L DTT, and 0.05% Tween 20, pH 4.8) in the presence or absence of HIV-1 PR (0.83 ng), and let it stand for 5 minutes at room temperature. Background fluorescence intensity was measured and let it stand for another 15 minutes at room temperature. The enzyme reaction was started by adding substrate diluted in assay buffer at final concentration of 2 μmol/L, and let it stand for 60 minutes at room temperature. After 60 minutes, the fluorescence intensity was measured. Fluorescence intensity was measured with excitation and emission wavelengths of 485 nm and 535 nm, respectively.
IC50 values were determined using non-linear regression four-parameter logistic equation, y=A+((B−A)/(1+((C/x)̂D))) where A=minimum inhibition, B=maximum inhibition, C=log IC50, D=slope factor, x=concentration of compound and y=% inhibition.
Usually IC50 stands for the concentration at which inhibition is half-maximal. Read a low IC50 as inhibition by little substance. Molecule `COc1ccc(S(=O)(=O)N(CC(C)C)C[C@@H](O)[C@H](Cc2ccc(OCc3ccccc3-c3sc(-c4ccccc4)nc3C(=O)O)cc2)NC(=O)O[C@H]2CO[C@H]3OCC[C@H]32)cc1` [Compound I-3] returned an IC50 of 1.02 nM.
As for `COc1ccc(S(=O)(=O)N(CC(C)C)C[C@@H](O)[C@H](Cc2ccc(COc3ccccc3-c3sc4c(c3C(=O)O)CC(C)(C)CC4)cc2)NC(=O)O[C@H]2CO[C@@]3(C)OCC[C@@H]23)cc1` [Compound I-4], the figure is 1.69 nM; as for `COc1ccc(S(=O)(=O)N(CC(C)C)C[C@@H](O)[C@H](Cc2ccc(OCc3sc4ccccc4c3C(=O)O)cc2)NC(=O)O[C@H]2CO[C@@]3(C)OCC[C@@H]23)cc1` [Compound I-5], 1.15 nM.
`COc1ccc(S(=O)(=O)N(CC(C)C)C[C@@H](O)[C@H](Cc2ccc(C#Cc3sc4c(c3C(=O)O)CC(C)(C)CC4)cc2)NC(=O)O[C@H]2CO[C@@]3(C)OCC[C@@H]23)cc1` [Compound I-11] gave an IC50 of 1.4 nM. The IC50 values of the last two molecules are within 1.5-fold of each other.
The result for `COc1ccc(S(=O)(=O)N(CC(C)C)C[C@@H](O)[C@H](Cc2ccc(NCc3sc4c(c3C(=O)O)CC(C)(C)CC4)cc2)NC(=O)O[C@H]2CO[C@@]3(C)OCC[C@@H]23)cc1` [Compound I-14] reads 1.7 nM; that for `CC(C)CN(C[C@@H](O)[C@H](Cc1ccc(OCc2ccccc2-c2sc3c(c2C(=O)O)CC(C)(C)CC3)cc1)NC(=O)O[C@H]1CO[C@@]2(C)OCC[C@@H]12)S(=O)(=O)c1ccc(N)c(/C=C/C(N)=O)c1` [Compound I-16], 2.22 nM.
Molecule `CC(C)CN(C[C@@H](O)[C@H](Cc1ccc(OCc2ccccc2-c2sc3c(c2C(=O)O)CC(C)(C)CC3)cc1)NC(=O)O[C@H]1CO[C@@]2(C)OCC[C@@H]12)S(=O)(=O)c1ccc(N)c(CCC(N)=O)c1` [Compound I-17] returned a concentration for half-maximal inhibition (IC50) of 1.24 nM.
`CC(C)CN(C[C@@H](O)[C@H](Cc1ccc(OCc2ccc(-c3ccc(F)cc3F)cc2C(=O)O)cc1)NC(=O)O[C@H]1CO[C@@]2(C)OCC[C@@H]12)S(=O)(=O)c1ccc2ncsc2c1` [Compound I-18] came in with an IC50 of 1.63 nM.
In the case of `COc1ccc(S(=O)(=O)N(CC(C)C)C[C@@H](O)[C@H](Cc2ccc(OCc3ccccc3-c3sc4c(c3C(N)=O)CC(C)(C)CC4)cc2)NC(=O)O[C@H]2CO[C@@]3(C)OCC[C@@H]23)cc1` [Compound I-20], the 50% inhibitory concentration (IC50) stood at 1.77 nM.
The result for `COc1ccc(S(=O)(=O)N(CC(C)C)C[C@@H](O)[C@H](Cc2ccc(OCc3ccc(-c4ccc(F)cc4F)cc3-c3noc(=O)[nH]3)cc2)NC(=O)O[C@H]2CO[C@@]3(C)OCC[C@@H]23)cc1` [Compound I-21] reads 1.39 nM; that for `COc1ccc(S(=O)(=O)N(CC(C)C)C[C@@H](O)[C@H](Cc2ccc(OCc3ccc(-c4ccc(F)cc4F)cc3-c3nnn[nH]3)cc2)NC(=O)O[C@H]2CO[C@@]3(C)OCC[C@@H]23)cc1` [Compound I-22], 0.99 nM; that for `COc1ccc(S(=O)(=O)N(CC(C)C)C[C@@H](O)[C@H](Cc2ccc(OCc3ccc(-c4ccc(F)cc4F)cc3C(=O)NC(N)=O)cc2)NC(=O)O[C@H]2CO[C@@]3(C)OCC[C@@H]23)cc1` [Compound I-24], 1.39 nM.
As for `COc1ccc(S(=O)(=O)N(CC(C)C)C[C@@H](O)[C@H](Cc2ccc(OCc3ccc(-c4ccc(F)cc4F)cc3C(=O)NC(=O)NC(C)(C)C)cc2)NC(=O)O[C@H]2CO[C@@]3(C)OCC[C@@H]23)cc1` [Compound I-25], the figure is 2.07 nM; as for `CC(C)CN(C[C@@H](O)[C@H](Cc1ccccc1)NC(=O)O[C@H]1CO[C@@]2(C)OCC[C@@H]12)S(=O)(=O)c1ccc2nc(NCc3sc4c(c3C(=O)O)CC(C)(C)CC4)sc2c1` [Compound I-26], 2.01 nM.
Molecule `CC(C)CN(C[C@@H](O)[C@H](Cc1ccccc1)NC(=O)O[C@H]1CO[C@@]2(C)OCC[C@@H]12)S(=O)(=O)c1ccc2nc(NCCCCOc3ccc(-c4sc5c(c4C(=O)O)CC(C)(C)CC5)cc3)sc2c1` [Compound I-27] gave an IC50 of 3.7 nM.
The result for `COc1ccc(S(=O)(=O)N(CC(C)C)C[C@@H](O)[C@H](Cc2ccc(OCc3ccccc3-c3sc4c(c3C(=O)O)CC(C)(C)CC4)cc2)NC(=O)O[C@@H]2C[C@@H]3[C@@H](OC(C)=O)CO[C@@H]3C2)cc1` [Compound I-28] reads 1.63 nM; that for `COc1ccc(S(=O)(=O)N(CC(C)C)C[C@@H](O)[C@H](Cc2ccccc2)NC(=O)O[C@H]2CO[C@@]3(CNC(=O)/C=C/c4sc5c(c4C(=O)O)CC(C)(C)CC5)OCC[C@@H]23)cc1` [Compound I-31], 0.73 nM.
The result for `CC1(C)CCc2sc(-c3ccc(CNC(=O)OC[C@]45OCC[C@H]4[C@@H](OC(=O)N[C@@H](Cc4ccccc4)[C@H](O)CN(CC(F)F)S(=O)(=O)c4ccc6ncsc6c4)CO5)cc3)c(C(=O)O)c2C1` [Compound I-32] reads 1.37 nM; that for `COc1ccc(S(=O)(=O)N(CC(C)C)C[C@@H](O)[C@H](Cc2ccccc2)NC(=O)O[C@H]2CO[C@@]3(CNC(=O)OCCCc4sc5c(c4C(=O)O)CC(C)(C)CC5)OCC[C@@H]23)cc1` [Compound I-34], 1.28 nM.
On to `CC1(C)CCc2sc(-c3cccc(CCCN(C[C@@H](O)[C@H](Cc4ccccc4)NC(=O)O[C@H]4CO[C@@]5(C)OCC[C@@H]45)S(=O)(=O)c4ccc5ncsc5c4)c3)c(C(=O)O)c2C1` [Compound I-36], for which the IC50 is 1.88 nM.
The molecule `COc1ccc(S(=O)(=O)N(CC(C)C)CC(O)C(Cc2ccc(NCc3ccccc3-n3nc4c(c3C(=O)O)CC3(CCCC3)CC4)cc2)NC(=O)OC2COC3(C)OCCC23)cc1` (stereo not drawn) [Compound I-38] returned an IC50 of 3.85 nM. Compared with the last molecule, the IC50 is about 2-fold higher.
Take `COc1ccc(S(=O)(=O)N(CC(C)C)CC(O)C(Cc2ccc(OCc3ccccc3-c3ccc4c(c3C(=O)O)CC(C)(C)CC4)cc2)NC(=O)OC2COC3(C)OCCC23)cc1` (stereo not drawn) [Compound I-40]: the IC50 turned out to be 1.9 nM. Compared with the last molecule, the IC50 is about 2-fold lower.
As for `COc1ccc(S(=O)(=O)N(CC(C)C)CC(O)C(Cc2ccc(-c3sc4c(c3C(=O)O)CC(C)(C)CC4)cc2)NC(=O)OC2COC3(C)OCCC23)cc1` (stereo not drawn) [Compound I-41], the figure is 1.11 nM; as for `COc1ccc(S(=O)(=O)N(CC(C)C)CC(O)C(Cc2ccc(N(Cc3ccccc3-c3sc4c(c3C(=O)O)CC(C)(C)CC4)CC3CCCCC3)cc2)NC(=O)OC2COC3(C)OCCC23)cc1` (stereo not drawn) [Compound I-42], 23.4 nM; as for `COc1ccc(S(=O)(=O)N(CC(C)C)CC(O)C(Cc2ccc(N(C)Cc3sc4c(c3C(=O)O)CC(C)(C)CC4)cc2)NC(=O)OC2COC3(C)OCCC23)cc1` (stereo not drawn) [Compound I-46], 1.86 nM.
As for `COc1ccc(S(=O)(=O)N(CC(C)C)CC(O)C(Cc2ccc(OCc3ccccc3-c3c(C(=O)O)c4c(n3C)CCCC4)cc2)NC(=O)OC2COC3(C)OCCC23)cc1` (stereo not drawn) [Compound I-50], the figure is 1.13 nM.
As for `CC(C)CN(CC(O)C(Cc1ccc(OCc2ccccc2-c2sc3c(c2C(=O)O)CC(C)(C)CC3)cc1)NC(=O)OC1COC2(C)OCCC12)S(=O)(=O)c1ccc(N)cc1` (stereo not drawn) [Compound I-52], the figure is 2.34 nM.
As to `COc1ccc(S(=O)(=O)N(CC(C)C)CC(O)C(Cc2ccc(OCc3ccccc3-n3nc4c(c3C(=O)O)CC3(CCCC3)CC4)cc2)NC(=O)OC2COC3(C)OCCC23)cc1` (stereo not drawn) [Compound I-53], half-maximal inhibition (IC50) required 0.83 nM.
As for `COc1ccc(S(=O)(=O)N(CC(C)C)CC(O)C(Cc2ccc(OCc3ccccc3-c3sc4c(c3C(=O)O)CC(F)(F)CC4)cc2)NC(=O)OC2COC3(C)OCCC23)cc1` (stereo not drawn) [Compound I-54], the figure is 1.24 nM.
Consider `COc1ccc(S(=O)(=O)N(CC(C)C)CC(O)C(Cc2ccc(OCc3ccccc3-c3sc4c(c3C(=O)O)CC(C)(C)CC4)cc2)NC(=O)OC2COC3(C)OCC(O)C23)cc1` (stereo not drawn) [Compound I-56], for which the half-inhibitory concentration (IC50) came to 1.21 nM.

These data come from patent publication US20170253607A1, “LONG-ACTING HIV PROTEASE INHIBITOR” (Shionogi & Co., Ltd., priority 2014, published 2017).
